Structures are written as SMILES.

Series [1] relates to conscious, normotensive rats. As to the kind of experiment: Mean arterial blood pressure in conscious, normotensive rats. The series is classed as in vivo, rat. As to conditions: 4.0 mg/kg i.v., 0-60 min. The protocol: Rats were anesthetized and a PE50 chronic indwelling cannula was placed in the abdominal aorta for measurement of blood pressure. On the following day, 5 rats each were administered vehicle (1% DMSO) or Compound 7 (4.0 mg/kg in 1% DMSO, i.v.) and mean blood pressure measurements were recorded at 0, 5, 30, and 60 minutes thereafter.

The next series has as its target T1, α1A adrenoceptor (Rattus norvegicus, UniProt P43140).
T1 construct: from tissue; host or cells: rat epididymal vas deferens
T1 sequence (P43140 1-466): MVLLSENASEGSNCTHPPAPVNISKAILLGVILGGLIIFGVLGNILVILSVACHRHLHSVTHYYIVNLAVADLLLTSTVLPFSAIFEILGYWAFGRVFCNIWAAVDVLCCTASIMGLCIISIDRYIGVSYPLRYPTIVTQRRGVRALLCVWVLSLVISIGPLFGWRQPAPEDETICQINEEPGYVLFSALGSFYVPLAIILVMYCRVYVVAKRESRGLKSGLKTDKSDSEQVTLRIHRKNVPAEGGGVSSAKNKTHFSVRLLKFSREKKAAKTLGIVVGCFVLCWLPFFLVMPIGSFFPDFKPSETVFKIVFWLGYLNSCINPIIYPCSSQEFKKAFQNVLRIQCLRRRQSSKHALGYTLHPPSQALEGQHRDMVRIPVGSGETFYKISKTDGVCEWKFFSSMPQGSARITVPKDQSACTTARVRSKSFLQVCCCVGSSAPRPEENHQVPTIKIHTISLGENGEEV
As to the kind of experiment: Isolated tissue functional assay, epididymal vas deferens (phenylephrine induced contraction). The protocol:
(§1) The functional in vitro activity of Compound 7 was characterized in several pharmacologically defined α1 adrenoceptor subtype isolated tissue assays (Aboud et al., 1993). (Rat epididymal vas deferens was used to determine α1A functional responses, spleen was used for α1B responses, and thoracic aorta was used for α1D responses.) Experiments were carried out according to the method of Deng et al., 1996, with minor buffer and tissue setup tension modifications. Krebs additionally contained 0.1 μM desipramine and 10 μM corticosterone to block neuronal and extra neuronal uptake, respectively, and 0.3 μM idazoxan to eliminate α2 mediated responses. Aorta and vas deferens strips were set at 0.5 g resting tension, and the splenic preparations were tensioned to 1 g. All preparations were equilibrated for 1 hr before the addition of drugs.
(§2) Additionally, its antagonist potency was determined by its ability to antagonize phenylephrine (PE) induced contraction in each of these preparations. The degree of shift of the PE agonist dose response-curve in the presence of Compound 7 was measured and pKB values were calculated (mean±s.e.m.).

The target in a further series is T2, α1D adrenergic receptor (Rattus norvegicus, UniProt P23944).
T2 construct: from tissue; host or cells: rat thoracic aorta strips
T2 sequence (P23944 1-561): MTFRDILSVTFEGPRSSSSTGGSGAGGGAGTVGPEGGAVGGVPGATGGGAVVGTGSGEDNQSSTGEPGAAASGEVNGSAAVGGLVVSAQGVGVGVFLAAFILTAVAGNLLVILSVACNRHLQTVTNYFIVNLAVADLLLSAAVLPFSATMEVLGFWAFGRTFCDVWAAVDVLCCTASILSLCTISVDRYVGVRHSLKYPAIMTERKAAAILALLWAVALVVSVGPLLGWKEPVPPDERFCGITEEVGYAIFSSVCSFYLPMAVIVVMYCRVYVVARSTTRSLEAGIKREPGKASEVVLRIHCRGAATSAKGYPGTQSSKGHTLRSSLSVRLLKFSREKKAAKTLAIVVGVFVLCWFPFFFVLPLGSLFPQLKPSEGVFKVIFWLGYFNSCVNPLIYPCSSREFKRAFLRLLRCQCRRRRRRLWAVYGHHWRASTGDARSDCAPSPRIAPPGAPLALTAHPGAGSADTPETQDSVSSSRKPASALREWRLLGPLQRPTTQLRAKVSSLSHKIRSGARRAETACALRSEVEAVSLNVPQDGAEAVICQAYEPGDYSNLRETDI
As to the kind of experiment: Isolated tissue functional assay, thoracic aorta (phenylephrine induced contraction). The protocol: as §1, §2

The target in another series is T3, α1B adrenoceptor (Rattus norvegicus, UniProt P15823).
T3 construct: from tissue; host or cells: rat splenic preparations
T3 sequence (P15823 1-515): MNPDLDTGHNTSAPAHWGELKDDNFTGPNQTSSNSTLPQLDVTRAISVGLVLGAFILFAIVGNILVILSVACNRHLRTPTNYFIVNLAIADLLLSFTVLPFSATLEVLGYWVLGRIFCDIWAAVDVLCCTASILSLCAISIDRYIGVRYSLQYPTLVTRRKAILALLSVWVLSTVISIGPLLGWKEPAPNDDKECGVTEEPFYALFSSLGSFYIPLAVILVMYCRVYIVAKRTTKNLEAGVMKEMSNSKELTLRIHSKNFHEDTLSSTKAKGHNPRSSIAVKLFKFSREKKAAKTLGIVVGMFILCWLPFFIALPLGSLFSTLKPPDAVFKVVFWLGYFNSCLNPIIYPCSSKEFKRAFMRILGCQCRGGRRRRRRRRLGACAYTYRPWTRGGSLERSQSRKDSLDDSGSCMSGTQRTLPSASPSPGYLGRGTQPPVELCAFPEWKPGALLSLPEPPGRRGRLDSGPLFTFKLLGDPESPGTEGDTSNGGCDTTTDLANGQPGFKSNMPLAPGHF
Description: Isolated tissue functional assay, spleen (phenylephrine induced contraction). The protocol: as §1, §2

Series [2] addresses T4, human 5-HT1Dβ (5-HT1B) receptor (Homo sapiens, UniProt P28222).
T4 construct: expressed in transfected cells; host or cells: LM(tk-) clonal cell line Ltk-11 (ATCC CRL 10422)
As to the kind of experiment: Competition binding ([3H]serotonin) at cloned human 5-HT1Dβ (5-HT1B) receptor. As to conditions: read-out: binding affinity (pKi) 5-HT1Dβ (5-HT1B) (converted). The protocol:
5-HT1Dα (5-HT1D) and 5-HT1Dβ (5-HT1B) receptors: The cell lysates of the LM(tk-) clonal cell line stably transfected with the genes encoding each of these 5-HT receptor subtypes were prepared as described above. The cell line for the 5-HT1Dα (5-HT1D) receptor, designated as Ltk-8-30-84, was deposited on Apr. 17, 1990, and accorded ATCC Accession No. CRL 10421. The cell line for the 5-HT1Dβ (5-HT1B) receptor, designated as Ltk-11, was deposited on Apr. 17, 1990, and accorded ATCC Accession No. CRL 10422. These preparations were suspended in 50 mM Tris-HCl buffer (pH 7.4 at 37° C.) containing 10 mM MgCl2, 0.2 mM EDTA, 10 μM pargyline, and 0.1% ascorbate. […] Nonspecific binding was determined in the presence of 10 μM serotonin. The bound radioligand was separated by filtration through GF/B filters using a cell harvester.

T4 sequence (P28222 whole entry): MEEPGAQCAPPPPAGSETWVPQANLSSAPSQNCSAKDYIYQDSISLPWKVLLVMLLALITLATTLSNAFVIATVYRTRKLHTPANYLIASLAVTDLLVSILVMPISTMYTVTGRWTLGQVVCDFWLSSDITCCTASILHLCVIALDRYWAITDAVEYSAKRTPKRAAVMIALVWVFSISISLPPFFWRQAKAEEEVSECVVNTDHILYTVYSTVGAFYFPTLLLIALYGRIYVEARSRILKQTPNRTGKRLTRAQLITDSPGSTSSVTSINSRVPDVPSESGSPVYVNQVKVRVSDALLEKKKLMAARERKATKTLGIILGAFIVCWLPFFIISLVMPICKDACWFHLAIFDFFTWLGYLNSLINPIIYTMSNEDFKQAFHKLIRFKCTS

Consider `O=C1CC2(CCCC2)CC(=O)N1CCN1CCN(c2cc(F)c(F)cc2F)CC1` [Compound 7, 8-{2-[4-(2,4,5-Trifluorophenyl)piperazin-1-yl]ethyl}-8-azaspiro[4.5]decane-7,9-dione], for which, in series [1], the “effect on mean blood pressure” value is “no reduction in blood pressure”. Moreover, the agonist activity result is “failed to produce agonist activity” at α1A adrenoceptor (concentrations up to 10 μM, rat vas deferens (α1A model)); “failed to produce agonist activity” at α1D adrenergic receptor (concentrations up to 10 μM, rat thoracic aorta (α1D model)); “failed to produce agonist activity” at α1B adrenoceptor (concentrations up to 10 μM, rat spleen (α1B model)). The Kb on α1A adrenoceptor (rat epididymal vas deferens (α1A), mean±s.e.m., read-out: pKB (antagonism of phenylephrine induced contraction) (converted)) is 6310 nM; on α1D adrenergic receptor (rat thoracic aorta (α1D), mean±s.e.m., read-out: pKB (antagonism of phenylephrine induced contraction) (converted)), 3.16 nM; on α1B adrenoceptor (rat spleen (α1B), mean±s.e.m., read-out: pKB (antagonism of phenylephrine induced contraction) (converted)) it was 200 nM. Also, the “fold less potent than in the aorta” value at α1A adrenoceptor (vas deferens versus aorta) is on record as “approximately 2000 fold”. Further, the “fold less effective than in the aorta” value on α1B adrenoceptor (spleen versus aorta) is on record as “approximately 60 fold”. In series [2], the Ki is 5010 nM.

For the origin of these results see patent publication US6706716B2, “Compounds specific for the human α1d adrenergic receptor and uses thereof” (Synaptic Pharmaceutical Corporation, priority 1998, dated 2004).
